This assay has as its target Cyclin-dependent kinase 8 (CDK8) (Homo sapiens, UniProt P49336). The assay is described as follows: LanthaScreen Eu kinase binding assay (TR-FRET displacement of Tracer […]), dose-response; […] inhibition at […] in 60-kinase panel.

What is called IC50 is the concentration at which inhibition is half-maximal. High values mean weaker potency, low ones greater potency.

Cyclin-dependent kinase 8 (CDK8), sequence (P49336 whole entry): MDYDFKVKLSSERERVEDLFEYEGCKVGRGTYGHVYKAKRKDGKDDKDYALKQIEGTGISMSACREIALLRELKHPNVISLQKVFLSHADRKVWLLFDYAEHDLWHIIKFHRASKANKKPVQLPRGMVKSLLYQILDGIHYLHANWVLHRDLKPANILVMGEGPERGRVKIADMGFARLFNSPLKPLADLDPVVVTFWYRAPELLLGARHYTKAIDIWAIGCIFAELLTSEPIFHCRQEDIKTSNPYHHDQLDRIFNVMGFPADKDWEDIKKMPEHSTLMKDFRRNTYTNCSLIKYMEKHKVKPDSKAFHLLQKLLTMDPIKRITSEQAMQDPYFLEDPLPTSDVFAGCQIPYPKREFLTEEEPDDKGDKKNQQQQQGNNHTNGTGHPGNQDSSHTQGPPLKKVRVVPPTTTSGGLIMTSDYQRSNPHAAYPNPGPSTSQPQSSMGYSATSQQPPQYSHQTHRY
Cyclin-dependent kinase 8 (CDK8), sequence (P24863 whole entry partner): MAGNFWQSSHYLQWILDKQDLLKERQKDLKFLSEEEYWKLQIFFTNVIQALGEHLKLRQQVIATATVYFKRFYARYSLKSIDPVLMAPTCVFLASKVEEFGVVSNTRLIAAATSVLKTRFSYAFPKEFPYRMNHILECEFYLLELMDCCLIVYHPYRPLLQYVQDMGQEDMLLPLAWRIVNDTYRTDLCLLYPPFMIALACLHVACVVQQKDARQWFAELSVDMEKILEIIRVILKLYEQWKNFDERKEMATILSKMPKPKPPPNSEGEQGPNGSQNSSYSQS

`O=C(Cc1nnc(-c2ccc3ncccc3c2)o1)NCc1ccc(F)cc1` [P162-0948] showed a 50% inhibitory concentration (IC50) of 50.4 nM.
